Laboratory results: publication PMC9515952, “Tentative exploration of pharmacodynamic substances: Pharmacological effects, chemical compositions, and multi-components pharmacokinetic characteristics of ESZWD in CHF-HKYd rats” (Frontiers in Cardiovascular Medicine, 2022)
Where two headings read alike, the source gives them in different places. One block for each compound: values may come before it.

How the values were obtained:
[1] = Pharmacokinetics of four components of ESZWD in CHF-HKYd rat serum by UPLC-MS/MS; assay type: in vivo; set-up: AUC(0-t) / AUC(0−t) / AUC(0-inf) / AUC(0−∞): concentration or dose not given beside the values; conditions: CHF-HKYd rat serum after oral administration of ESZWD, mean ± SD, n = 6
Method: (§1) All rats were randomly divided into control group, model group, ESZWD low-dose (3.96 g/kg), medium-dose (7.92 g/kg), high-dose (15.84 g/kg) groups, and positive control group (benazepril, 0.5 mg/kg), with six rats in each group. The CHF-HKYd was established after 1 week of feeding. ESZWD and benazepril were administered by gavage separately for 4 weeks after successful modeling, except for the control group. Blood was collected for 5, 10, 20, 30, 45 min, 1, 2, 4, 6, 8, 12, and 24 h, standing for 2 h and centrifuged at 4°C, 3,500 rpm for 10 min, the supernatant was retained. The state of rats was observed and the urine volume at 24 h was measured. The structure and function of rat heart were evaluated by doppler ultrasonography. Serum biomarkers including myocardial injury indicators NT-proBNP, angiotensinII (AngII), aldosterone (ALD), reactive oxygen species (ROS), superoxide dismutase (SOD), malondialdehyde (MDA), and tumor necrosis factor α (TNF-α) and interleukin 6 (IL-6) were detected by ELISA.
Chromatographic analysis was performed using ACQUITY UPLC BEH C18 column (2.1 × 50 mm, […]), the mobile phase was acetonitrile (A) 0.1% formic acid water (B), the flow rate was set as 0.2 mL·min^−1, the column temperature was 35°C, the injection volume was 2 μL, and the gradient conditions were as follows: 0–8 min: 6–11%A, 8–23 min: 11–19%A, 23–45 min: 19–38%A, 45–55 min: 38–47%A, 55–55.1 min: 47–52%A, 55.1–65 min: 52–90%A, 65–66 min: 90–6%A of UPLC-Q-TOF/MS analysis and 0–3 min: 8–10%A, 3–3.5 min: 10–70% A, 3.5–5: 70–80%A, 5–5.1 min: 80–8% A, 5.1–6 min: 8% A of UPLC-MS/MS.
Mass spectrometric detection of UPLC-MS/MS analysis was carried out on electrospray ionization (ESI) ion source, multiple reaction monitoring (MRM) mode, ion spray voltage of 5,500 V, the curtain gas and collision gas were 40 and 9 kPa, respectively, declustering potential (DP) and collision voltage (CE) are shown in Table 1.

[2] = rat; for Stability, Room temperature, Mean ± SD: 4 h; for Stability, Automatic sampler, Mean ± SD: 8 h; for Stability, Long-term freeze, Mean ± SD: 7 d
Method: The stability of all probe drugs was evaluated by LQC and HQC samples under different experimental conditions, including short-term stability [4 h at room temperature (25°C), 8 h in the automatic sampler, and three freeze and thaw cycles, respectively] and long-term stability (7 d at −80°C).

ROS = test: Serum reactive oxygen species (ROS) by ELISA in CHF-HKYd rats; assay type: in vivo, rat; conditions: benazepril 0.5 mg/kg, gavage 4 weeks
Method: (§2) SPF SD male rats were anesthetized by intraperitoneal injection of 25% urethane (1,000 mg/kg). Cut off the skin tissue for about 1 cm, blunt away from bilateral neck muscles, separate and excise the bilateral thyroid glands, and the parathyroid glands were retained. The mixture of noradrenaline and normal saline (1:4,000) was used to stop intraoperative bleeding during the operation, the muscle and skin were sutured and 0.1% calcium gluconate solution was given postoperatively. On the 10th day after thyroidectomy, the rats were intraperitoneally injected with 0.02% doxorubicin hydrochloride (1 mL/100 g), twice a week for 3 weeks.
as §1, with “ESZWD and benazepril were administered by gavage separately for 4 weeks after successful modeling, except for the control group. Blood was collected for 5, 10, 20, 30, 45 min, 1, 2, 4, 6, 8, 12, and 24 h, standing for 2 h and centrifuged at 4°C, 3,500 rpm for 10 min, the supernatant was retained.” left out

NT-proBNP = test: Serum NT-proBNP by ELISA in CHF-HKYd rats; assay type: in vivo, rat; conditions: benazepril 0.5 mg/kg, gavage 4 weeks
Method: as §2
The general state of rats was observed: the basic criteria for the symptoms of HKYd were dark purple coating on the tongue, asthma, edema, fear of cold, emaciation, loose stools, sleepiness, hypotrichosis, etc. The urine volume of rats was measured: 1 week after the last injection, 24 h urine volume of rats in the normal and model group were collected in the metabolic cage, and the urine samples were frozen at −80°C. Evaluation of cardiac function in rats by Doppler echocardiography: After urine collection, the rats were anesthetized and fixed in the supine position. The precardiac area of the rats was depilated and the coupling agent was applied, a frequency of 12 MHz. […] The contents of serum NT-proBNP, T3, and T4 were detected by ELISA. […]

MDA = test: Serum malondialdehyde (MDA) by ELISA in CHF-HKYd rats; assay type: in vivo, rat; conditions: benazepril 0.5 mg/kg, gavage 4 weeks
Method: as §2
as §1, with “ESZWD and benazepril were administered by gavage separately for 4 weeks after successful modeling, except for the control group. Blood was collected for 5, 10, 20, 30, 45 min, 1, 2, 4, 6, 8, 12, and 24 h, standing for 2 h and centrifuged at 4°C, 3,500 rpm for 10 min, the supernatant was retained.” left out

AngII = test: Serum angiotensinII (AngII) by ELISA in CHF-HKYd rats; assay type: in vivo, rat; conditions: benazepril 0.5 mg/kg, gavage 4 weeks
Method: as §2
as §1, with “ESZWD and benazepril were administered by gavage separately for 4 weeks after successful modeling, except for the control group. Blood was collected for 5, 10, 20, 30, 45 min, 1, 2, 4, 6, 8, 12, and 24 h, standing for 2 h and centrifuged at 4°C, 3,500 rpm for 10 min, the supernatant was retained.” left out

IL-6 = test: Serum IL-6 by ELISA in CHF-HKYd rats; assay type: in vivo, rat; conditions: benazepril 0.5 mg/kg, gavage 4 weeks
Method: as §2
as §1, with “ESZWD and benazepril were administered by gavage separately for 4 weeks after successful modeling, except for the control group. Blood was collected for 5, 10, 20, 30, 45 min, 1, 2, 4, 6, 8, 12, and 24 h, standing for 2 h and centrifuged at 4°C, 3,500 rpm for 10 min, the supernatant was retained.” left out

TNF-α = test: Serum TNF-α by ELISA in CHF-HKYd rats; assay type: in vivo, rat; conditions: benazepril 0.5 mg/kg, gavage 4 weeks
Method: as §2
as §1, with “ESZWD and benazepril were administered by gavage separately for 4 weeks after successful modeling, except for the control group. Blood was collected for 5, 10, 20, 30, 45 min, 1, 2, 4, 6, 8, 12, and 24 h, standing for 2 h and centrifuged at 4°C, 3,500 rpm for 10 min, the supernatant was retained.” left out

ALD = test: Serum aldosterone (ALD) by ELISA in CHF-HKYd rats; assay type: in vivo, rat; conditions: benazepril 0.5 mg/kg, gavage 4 weeks
Method: as §2
as §1, with “ESZWD and benazepril were administered by gavage separately for 4 weeks after successful modeling, except for the control group. Blood was collected for 5, 10, 20, 30, 45 min, 1, 2, 4, 6, 8, 12, and 24 h, standing for 2 h and centrifuged at 4°C, 3,500 rpm for 10 min, the supernatant was retained.” left out

CHF-HKYd rats = test: Doppler echocardiography of cardiac function in CHF-HKYd rats; assay type: in vivo, rat; conditions: benazepril 0.5 mg/kg by gavage for 4 weeks (positive control)
Method: as §2
The general state of rats was observed: the basic criteria for the symptoms of HKYd were dark purple coating on the tongue, asthma, edema, fear of cold, emaciation, loose stools, sleepiness, hypotrichosis, etc. The urine volume of rats was measured: 1 week after the last injection, 24 h urine volume of rats in the normal and model group were collected in the metabolic cage, and the urine samples were frozen at −80°C. Evaluation of cardiac function in rats by Doppler echocardiography: After urine collection, the rats were anesthetized and fixed in the supine position. The precardiac area of the rats was depilated and the coupling agent was applied, a frequency of 12 MHz. M-mode ultrasound and pulsed Doppler ultrasound were used to detect diastolic interventricular septum (IVSD), left ventricular internal diastolic diameter (LVIDd), left ventricular posterior wall diastolic diameter (LVPWd), systolic interventricular septum (IVSs) and left ventricular internal systolic diameter (LVIDs), left ventricular posterior wall systolic diameter (LVPWs), stroke volume (SV), left ventricular ejection fraction (LVEF), left ventricular short-axis systolic fraction (FS), and the ratio of peak flow velocity between early and late mitral valve diastole (E/A) through the left ventricular macropinacoid of left sternal bone and four-chamber view. Neuroendocrine factor detection: After the echocardiography, 1 mL of blood was taken from the canthus of rats in each group, blood was placed in the water at 37°C for 1.5 h, centrifuged to obtain serum (3,000 rpm, 10 min), frozen at −80°C. The contents of serum NT-proBNP, T3, and T4 were detected by ELISA.
as §1

- AUC(0−t) [1]: 1,098 ± 69.72 ng/mL·h
- AUC(0−∞) [1]: 1,125 ± 84.73 ng/mL·h
- CL/F [1]: 297.8 ± 23 mL/min/kg
- Cmax [1]: 178.9 ± 16.24 ng/mL
- T1/2 [1]: 4.25 ± 0.82 h
- Tmax [1]: 1.00 ± 0.00 h
- V/F [1]: 108.7 ± 15.80 L/kg
Compound: Miltrione

- Stability, Multigelation, Mean ± SD ([2]; 1 ng/mL): 1.012 ± 0.07 ng/mL
- Stability, Multigelation, Mean ± SD ([2]; 10 ng/mL): 10.41 ± 0.73 ng/mL
- Stability, Multigelation, Mean ± SD ([2]; 150 ng/mL): 162.2 ± 9.25 ng/mL
- Stability, Room temperature, Mean ± SD ([2]; 1 ng/mL): 1.046 ± 0.06 ng/mL
- Stability, Room temperature, Mean ± SD ([2]; 10 ng/mL): 10.18 ± 0.72 ng/mL
- Stability, Room temperature, Mean ± SD ([2]; 150 ng/mL): 160.7 ± 5.68 ng/mL
- Stability, Automatic sampler, Mean ± SD ([2]; 1 ng/mL): 1.053 ± 0.02 ng/mL
- Stability, Automatic sampler, Mean ± SD ([2]; 10 ng/mL): 10.51 ± 0.98 ng/mL
- Stability, Automatic sampler, Mean ± SD ([2]; 150 ng/mL): 160.2 ± 6.15 ng/mL
- Stability, Long-term freeze, Mean ± SD ([2]; 1 ng/mL): 1.010 ± 0.08 ng/mL
- Stability, Long-term freeze, Mean ± SD ([2]; 10 ng/mL): 10.19 ± 0.97 ng/mL
- Stability, Long-term freeze, Mean ± SD ([2]; 150 ng/mL): 149.6 ± 11.70 ng/mL
- V/F [1]: 41.20 ± 0.83 L/kg
- AUC(0-inf) ([1]; Sprague-Dawley (SD)): 2260 ± 179 ng·h/mL
- AUC(0-t) ([1]; Sprague-Dawley (SD)): 2240 ± 178 ng·h/mL
- half-life ([1]; Sprague-Dawley (SD)): 3.22 ± 0.34 h
- CL/F ([1]; Sprague-Dawley (SD), read-out: CL/F (converted)): 148 mL/min/kg
- Cmax ([1]; Sprague-Dawley (SD), read-out: Cmax): 198 ± 27.7 ng/mL
- Tmax ([1]; Sprague-Dawley (SD), read-out: Tmax): 6 ± 2.54 h
- half-life ([1]; Sprague-Dawley): ~3 h
Compound: C[C@@]12C[C@@]3(O)O[C@@H](O1)[C@]1(COC(=O)c4ccccc4)[C@H]3C[C@@]12O[C@@H]1O[C@H](CO)[C@@H](O)[C@H](O)[C@H]1O [Paeoniflorin]

Compound: CCOC(=O)[C@H](CCc1ccccc1)N[C@H]1CCc2ccccc2N(CC(=O)O)C1=O [Benazepril, benazepril]
- serum ROS level vs model group (ROS): significantly reduce
- serum NT-proBNP level vs model group (NT-proBNP): significantly reduced
- serum MDA level vs model group (MDA): significantly reduce
- serum AngII level vs model group (AngII): significantly reduced
- serum IL-6 level vs model group (IL-6): significantly reduced
- serum TNF-α level vs model group (TNF-α): significantly reduced
- serum ALD level vs model group (ALD): significantly reduced
- E/A (CHF-HKYd rats): 1.794 ± 0.28
- FS (CHF-HKYd rats): 60.31 ± 8.10 %
- IVSd (CHF-HKYd rats): 1.800 ± 0.62 mm
- IVSs (CHF-HKYd rats): 3.425 ± 0.88 mm
- LVEF (CHF-HKYd rats): 92.30 ± 4.09 %
- LVIDd (CHF-HKYd rats): 5.950 ± 1.28 mm
- LVIDs (CHF-HKYd rats): 2.350 ± 0.72 mm
- LVPWd (CHF-HKYd rats): 1.900 ± 0.67 mm
- LVPWs (CHF-HKYd rats): 3.525 ± 0.79 mm
- SV (CHF-HKYd rats): 0.4950 ± 0.25 mL
